Assay results taken from patent US20260116921A1, “PEPTIDE INHIBITORS OF INTERLEUKIN-23 RECEPTOR AND THEIR USE TO TREAT INFLAMMATORY DISEASES” (priority 2018, published 2026).
Where two headings read alike, the source gives them in different places. Bridge positions count the residues as written; N and C are the ends. Square brackets hold non-standard residues; d marks the D form. Peptide text beside a SMILES is read from it. Trp(7-Me) = Cc1cccc2c(C[C@H](N)C(=O)O)c[nH]c12; 2Nal = N[C@@H](Cc1ccc2ccccc2c1)C(=O)O; AEF = NCCOc1ccc(C[C@H](N)C(=O)O)cc1; Cit = NC(=O)NCCC[C@H](N)C(=O)O; Pen = CC(C)(S)[C@H](N)C(=O)O; αMeK = C[C@](N)(CCCCN)C(=O)O; Aib = CC(C)(N)C(=O)O

How the values were obtained:
in vitro [1] = type: in vitro ADME; parameters: half-life: dose or concentration left out as unconfirmed; details: simulated intestinal fluid (SIF) with pancreatin, pH 6.8, 37° C., § matrix is 100 fold dilution of standard SIF concentration, read-out: SIF t½ (converted)
[2] = Stability in simulated gastric fluid (SGF); type: in vitro ADME; details: porcine pepsin, pH=2, 37° C., 20 μM peptide
Procedure: SGF was prepared by adding 20 mg NaCl, 32 mg porcine pepsin (MP Biochemicals, catalog 02102599), and 70 μl HCl to 10 ml water (final pH=2). Aliquots of SGF (0.5 ml each) were pre-warmed at 37° C. To start the reaction, 1 μl of peptide stock solution (10 mM in DMSO) was added to 0.5 ml SGF and thoroughly mixed such that the final peptide concentration was 20 μM. The reactions were incubated at 37° C. with gentle shaking. At each time point (0, 15, 30, 60 min) 50 μl aliquots were removed and added to 200 ul acetonitrile containing 0.1% formic acid to quench the reaction. Samples are stored at 4° C. until the end of the experiment and centrifuged at 10,000 rpm for 5 minutes. Aliquots of the supernatant were removed, diluted 1:1 into distilled water containing internal standard, and analyzed by LCMS/MS. Percent remaining at each timepoint was calculated based on the peak area response ratio of test to compound to internal standard. Time 0 was set to 100%, and all later timepoints were calculated relative to time 0. Half-lives were calculated by fitting to a first-order exponential decay equation using GraphPad.

IL-23R = target: T1, IL-23R (Homo sapiens, UniProt Q5VWK5); assay: DB cells IL23R pSTAT3 cell assay (pStat3 HTRF); type: cell-based
T1 sequence (Q5VWK5 24-629): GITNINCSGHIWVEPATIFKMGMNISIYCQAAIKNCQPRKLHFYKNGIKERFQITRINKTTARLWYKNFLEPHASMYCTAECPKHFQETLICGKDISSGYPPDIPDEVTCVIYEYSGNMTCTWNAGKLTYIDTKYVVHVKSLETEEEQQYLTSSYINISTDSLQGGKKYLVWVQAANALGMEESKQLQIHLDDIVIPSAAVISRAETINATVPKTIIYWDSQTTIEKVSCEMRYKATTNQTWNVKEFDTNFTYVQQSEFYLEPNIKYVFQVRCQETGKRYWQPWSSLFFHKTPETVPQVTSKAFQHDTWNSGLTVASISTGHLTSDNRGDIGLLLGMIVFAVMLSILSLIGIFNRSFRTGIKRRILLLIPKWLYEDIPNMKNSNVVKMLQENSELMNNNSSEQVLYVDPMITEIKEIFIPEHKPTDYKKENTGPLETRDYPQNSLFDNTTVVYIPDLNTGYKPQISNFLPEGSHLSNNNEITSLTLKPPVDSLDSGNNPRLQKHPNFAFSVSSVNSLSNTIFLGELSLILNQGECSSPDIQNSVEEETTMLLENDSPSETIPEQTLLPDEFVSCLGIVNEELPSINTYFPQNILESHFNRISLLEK
Method in brief: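 HTRF readout of lysate pSTAT3 (Tyr705) after two-plate processing. Peptide dilution series co-incubated with IL-23 (0.5 nM final) on 5×10E5 IL-23R-expressing DB cells per well, 30 min, 37 °C.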

in vitro [3] = details: cynomolgus monkey, 20% fecal homogenate (supernatant), anaerobic, pH 6.8
in vitro [4] = details: both, SD, rat, plasma (EDTA)
NK cells = assay: NK cell based assay (IL-23/IL-18-induced IFNγ, Quantikine ELISA); details: human primary NK cells, IL-23 at EC50 to EC75 + IL-18 10 ng/mL, IFNγ after 20 to 24 hours
Procedure: killer (NK) cells, purified from human peripheral blood of healthy donors by negative selection (Miltenyi Biotech, Cat #130-092-657), were cultured in complete media (RPMI 1640 containing […], L-glutamine and penicillin-streptomycin) in the presence of IL-2 (RnD, Cat #202-IL-010/CF) at 25 ng/mL. After 7 days, cells were centrifuged, and resuspended in complete media at IE6 cells/mL. […] After 20 to 24 hours, IFNγ in the supernatant was quantified using Quantikine ELISA (RnD, Cat #DIF50).

in vitro [5] = details: human, 20% fecal homogenate (supernatant), anaerobic, pH 6.8
[6] = Table E3, DB cells, IL-23 0.5 nM, 30 minutes at 37° C., read-out: pStat3 HTRF (IC50)

In the case of `CC(=O)NCCCC[C@H](NC(=O)[C@](C)(CC(C)C)NC(=O)[C@H](Cc1c[nH]c2cc(F)ccc12)NC(=O)[C@H](Cc1ccc(OCCN)cc1)NC(=O)[C@H]1NC(=O)[C@H](CCC(N)=O)NC(=O)[C@H](Cc2c[nH]c3ccccc23)NC(=O)[C@H]([C@@H](C)O)NC(=O)[C@H](CC(N)=O)NC(=O)[C@@H](NC(C)=O)C(C)(C)SSC1(C)C)C(=O)N[C@@H](CC(N)=O)C(=O)N[C@@H](CC(N)=O)C(N)=O` [compound 14], the half-life (in vitro [1]) is reported as 9 h, the “SGF t½” value [2] is reported as 24 h and the IC50 (IL-23R) is reported as 0.01 to 0.1 µM.

For `CC(=O)NCCCC[C@H](NC(=O)[C@](C)(CCCCN)NC(=O)[C@H](Cc1ccc2ccccc2c1)NC(=O)[C@H](Cc1ccc(OCCN)cc1)NC(=O)[C@H]1NC(=O)[C@H](CCCNC(N)=O)NC(=O)[C@H](Cc2c[nH]c3c(C)cccc23)NC(=O)[C@H]([C@@H](C)O)NC(=O)[C@H](CC(N)=O)NC(=O)[C@@H](NC(C)=O)C(C)(C)SSC1(C)C)C(=O)N[C@@H](CC(N)=O)C(=O)NC(C)(C)C(N)=O` [compound 264] (Ac-[Pen]NT[Trp(7-Me)][Cit][Pen][AEF][2Nal][αMeK]K(Ac)N[Aib]-NH2; disulfide 1-6), the half-life (in vitro [1]) was 18 h, the half-life at 20 μM (in vitro [3]) was over 24 h and the half-life at 20 μM (in vitro [4]) was over 24 h. The IC50 (NK cells) was under 0.01 µM, the IC50 (IL-23R; [6]) was under 0.001 µM and the half-life at 20 μM (in vitro [5]) was over 24 h.

Work on `CC(=O)NCCCC[C@@H]1NC(=O)[C@H](Cc2c[nH]c3c(C)cccc23)NC(=O)[C@H]([C@@H](C)O)NC(=O)[C@H](CC(N)=O)NC(=O)[C@@H](NC(C)=O)C(C)(C)SSC(C)(C)[C@@H](C(=O)N[C@@H](Cc2ccc(OCCN)cc2)C(=O)N[C@@H](Cc2ccc3ccccc3c2)C(=O)N[C@@](C)(CCCCN)C(=O)N[C@@H](CCCCNC(C)=O)C(=O)N[C@@H](CO)C(=O)NCCC(N)=O)NC1=O` [compound 271] yielded a half-life (in vitro [1]) of 22 h, a half-life at 20 μM (in vitro [3]) of over 24 h and a half-life at 20 μM (in vitro [4]) of over 24 h. The IC50 (NK cells) was under 0.01 µM, the IC50 (IL-23R; [6]) was 0.001 to 0.01 µM and the half-life at 20 μM (in vitro [5]) was over 24 h.

`CC(=O)NCCCC[C@@H]1NC(=O)[C@H](Cc2c[nH]c3c(C)cccc23)NC(=O)[C@H]([C@@H](C)O)NC(=O)[C@H](CC(N)=O)NC(=O)[C@@H](NC(C)=O)C(C)(C)SSC(C)(C)[C@@H](C(=O)N[C@@H](Cc2ccc(OCCN)cc2)C(=O)N[C@@H](Cc2ccc3ccccc3c2)C(=O)N[C@@](C)(CCCCN)C(=O)N[C@@H](CCCCNC(C)=O)C(=O)N[C@@H](Cc2c[nH]cn2)C(=O)NCCC(N)=O)NC1=O` [compound 272] showed a half-life at 20 μM (in vitro [3]) of over 24 h, a half-life at 20 μM (in vitro [4]) of over 24 h and an IC50 (NK cells) of under 0.01 µM. For the same compound, the IC50 (IL-23R; [6]) was 0.001 to 0.01 µM and the half-life at 20 μM (in vitro [5]) was over 24 h.

Work on `CC(=O)NCCCC[C@@H]1NC(=O)[C@H](Cc2c[nH]c3c(C)cccc23)NC(=O)[C@H]([C@@H](C)O)NC(=O)[C@H](CC(N)=O)NC(=O)[C@@H](NC(C)=O)C(C)(C)SSC(C)(C)[C@@H](C(=O)N[C@@H](Cc2ccc(OCCN)cc2)C(=O)N[C@@H](Cc2ccc3ccccc3c2)C(=O)N[C@@](C)(CCCCN)C(=O)N[C@@H](CCC(=O)O)C(=O)NCCC(=O)NCCC(N)=O)NC1=O` [compound 273] yielded a half-life (in vitro [1]) of 8 h, a half-life at 20 μM (in vitro [3]) of 12 h and a half-life at 20 μM (in vitro [4]) of over 24 h. The IC50 (NK cells) was under 0.01 µM, the IC50 (IL-23R; [6]) was 0.001 to 0.01 µM and the half-life at 20 μM (in vitro [5]) was over 24 h.

In the case of `CC(=O)NCCCC[C@H](NC(=O)[C@](C)(CCCN)NC(=O)[C@H](Cc1ccc2ccccc2c1)NC(=O)[C@H](Cc1ccc(OCCN)cc1)NC(=O)[C@H]1NC(=O)[C@H](CCC(N)=O)NC(=O)[C@H](Cc2c[nH]c3c(C)cccc23)NC(=O)[C@H]([C@@H](C)O)NC(=O)[C@H](CC(N)=O)NC(=O)[C@@H](NC(C)=O)C(C)(C)SSC1(C)C)C(=O)N[C@@H](CC(N)=O)C(=O)NCCC(N)=O` [compound 278], the half-life (in vitro [1]) is reported as 19 h, the half-life at 20 μM (in vitro [3]) is reported as 15 h and the half-life at 20 μM (in vitro [4]) is reported as over 24 h. For the same compound, the IC50 (NK cells) was under 0.01 µM, the IC50 (IL-23R; [6]) was under 0.001 µM and the half-life at 20 μM (in vitro [5]) was over 24 h.

In the case of `CC(=O)N[C@@H]1C(=O)N[C@@H](CC(N)=O)C(=O)N[C@@H]([C@@H](C)O)C(=O)N[C@@H](Cc2c[nH]c3c(C)cccc23)C(=O)N[C@@H](CCC(N)=O)C(=O)N[C@H](C(=O)N[C@@H](Cc2ccc(OCCN)cc2)C(=O)N[C@@H](Cc2ccc3ccccc3c2)C(=O)N[C@@](C)(CCCCN)C(=O)N[C@@H](CCC(=O)O)C(=O)N[C@@H](CC(N)=O)C(=O)NCCC(N)=O)C(C)(C)SSC1(C)C` [compound 282], the half-life at 20 μM (in vitro [3]) is reported as 22 h, the half-life at 20 μM (in vitro [4]) is reported as over 24 h and the IC50 (NK cells) is reported as under 0.01 µM. It also gave an IC50 (IL-23R; [6]) of 0.001 to 0.01 µM and a half-life at 20 μM (in vitro [5]) of over 24 h.
